In brackets after ≈: the same amount, converted by molar mass.
Key:
Assay type in all cases: functional
[1] = tested on: Acinetobacter baumannii; assay: Antibacterial activity against wild type Acinetobacter baumannii ATCC BAA-747 by CLSI M100-S17 protocol based method
[2] = tested on: Escherichia coli; assay: Antibacterial activity against wild type Escherichia coli ATCC 25922 by CLSI M100-S17 protocol based method
[3] = tested on: Klebsiella pneumoniae; assay: Antibacterial activity against wild type Klebsiella pneumoniae ATCC 35657 by CLSI M100-S17 protocol based method
[4] = tested on: Escherichia coli; assay: Antibacterial activity against fluoroquinolone resistant Escherichia coli SKM18 by CLSI M100-S17 protocol based method
[5] = tested on: Acinetobacter baumannii; assay: Antibacterial activity against fluoroquinolone resistant Acinetobacter baumannii isolate MMX2240 by CLSI M100-S17 protocol based method
[6] = tested on: Escherichia coli; assay: Antibacterial activity against quinolone resistance Escherichia coli isolate ELZ4251 harboring gyrA/parC mutant by CLSI M100-S17 protocol based method
[7] = tested on: Escherichia coli; assay: Antibacterial activity against wild type Escherichia coli ATCC 25922 in presence of HSA by CLSI M100-S17 protocol based method

Row | SMILES | MIC [1] [µg/mL] | MIC [2] [µg/mL] | MIC [3] [µg/mL] | MIC [4] [µg/mL] | MIC [5] [µg/mL] | MIC [6] [µg/mL] | MIC [7] [µg/mL]
1 | CC(C)NCc1cc2cc3c(cc2n1C)COCc1c-3[nH]c(=O)c(C(=O)O)c1O | > 50 | 12.5 (≈ 31.5 µM) | 3.1 (≈ 7.8 µM) | 0.78 (≈ 1.96 µM) | > 50 |  | 
2 | CC(C)NCc1cc2cc3c(cc2n1C)NCCc1c-3[nH]c(=O)c(C(=O)O)c1O | > 25 | 7.8 (≈ 19.7 µM) | 6.3 (≈ 15.9 µM) | 3.9 (≈ 9.84 µM) | > 25 | 62.5 (≈ 158 µM) | 
3 | Cn1c(CN2CCCC2)cc2cc3c(cc21)SCCc1c-3[nH]c(=O)c(C(=O)O)c1O | 2 (≈ 4.7 µM) | 2 (≈ 4.7 µM) | 2 (≈ 4.7 µM) | 2 (≈ 4.7 µM) | 3.9 (≈ 9.17 µM) |  | 31.3
4 | CCc1c(-c2ccc3c(c2)cc(CN2CCCC2)n3C)[nH]c(=O)c(C(=O)O)c1O | 0.78 (≈ 1.97 µM) | 0.78 (≈ 1.97 µM) | 0.78 (≈ 1.97 µM) | 6.3 (≈ 15.9 µM) | 12.5 (≈ 31.6 µM) | 6.3 (≈ 15.9 µM) | 
5 | CN(C)Cc1cc2cc3c(cc2n1C)SCCc1c-3[nH]c(=O)c(C(=O)O)c1O | 2 (≈ 5.01 µM) | 2 (≈ 5.01 µM) | 2 (≈ 5.01 µM) | 2 (≈ 5.01 µM) | 3.9 (≈ 9.76 µM) |  | 31.2
6 | CCNCc1cc2cc3c(cc2n1C)NCCc1c-3[nH]c(=O)c(C(=O)O)c1O | > 25 | 15.6 (≈ 40.8 µM) | 6.3 (≈ 16.5 µM) | 3.9 (≈ 10.2 µM) | > 25 | > 62.5 | 
7 | CCc1c(-c2ccc3c(c2)cc(CNC(C)C)n3C)[nH]c(=O)c(C(=O)O)c1O | 0.78 (≈ 2.03 µM) | 0.39 (≈ 1.02 µM) | 0.39 (≈ 1.02 µM) | 1.6 (≈ 4.17 µM) | 3.1 (≈ 8.08 µM) | 3.1 (≈ 8.08 µM) | 1.6
8 | CN(C)Cc1cc2cc(-c3[nH]c(=O)c(C(=O)O)c(O)c3C3CC3)ccc2n1C | > 62.5 | 62.5 (≈ 164 µM) | 31.3 (≈ 82.1 µM) | 31.3 (≈ 82.1 µM) | 15.6 (≈ 40.9 µM) |  | > 62.5
9 | COCCNCc1cc2cc3c(cc2n1C)OCCc1c-3[nH]c(=O)c(C(=O)O)c1O | 7.8 (≈ 18.9 µM) | 2 (≈ 4.84 µM) | 2 (≈ 4.84 µM) | 0.5 (≈ 1.21 µM) | 7.8 (≈ 18.9 µM) |  | 15.6
10 | CCc1c(-c2ccc3c(c2)cc(CNC)n3C)[nH]c(=O)c(C(=O)O)c1O | 0.78 (≈ 2.19 µM) | 0.39 (≈ 1.1 µM) | 0.78 (≈ 2.19 µM) | 1.6 (≈ 4.5 µM) | 6.3 (≈ 17.7 µM) | 3.1 (≈ 8.72 µM) | 0.78
11 | COC1CCN(Cc2cc3cc4c(cc3n2C)OCCc2c-4[nH]c(=O)c(C(=O)O)c2O)C1 (configuration not stated) | 3.9 (≈ 8.87 µM) | 3.9 (≈ 8.87 µM) | 15.6 (≈ 35.5 µM) | 2 (≈ 4.55 µM) | 7.8 (≈ 17.7 µM) |  | 7.8
12 | CC(C)c1c(-c2ccc3c(c2)cc(CN(C)C)n3C)[nH]c(=O)c(C(=O)O)c1O | 15.6 (≈ 40.7 µM) | 3.1 (≈ 8.08 µM) | 3.9 (≈ 10.2 µM) | > 62.5 | 62.5 (≈ 163 µM) |  | 31.3
13 | CCc1c(-c2ccc(N(C)C)cc2)[nH]c(=O)c(C(=O)O)c1O | 1.6 (≈ 5.29 µM) | 0.78 (≈ 2.58 µM) | 3.1 (≈ 10.3 µM) | 15.6 (≈ 51.6 µM) | 6.3 (≈ 20.8 µM) | 15.6 (≈ 51.6 µM) | > 62.5
14 | CN(C)CCNCc1cc2cc3c(cc2n1C)CCCc1c-3[nH]c(=O)c(C(=O)O)c1O | 15.6 (≈ 36.7 µM) | 3.9 (≈ 9.19 µM) | 2 (≈ 4.71 µM) | 0.5 (≈ 1.18 µM) | 62.5 (≈ 147 µM) |  | 15.6
15 | CNCc1cc2cc3c(cc2n1C)NCCc1c-3[nH]c(=O)c(C(=O)O)c1O | > 25 | 31.3 (≈ 85 µM) | 6.3 (≈ 17.1 µM) | 3.9 (≈ 10.6 µM) | > 25 | > 62.5 | 
16 | COCCNCc1cc2cc3c(cc2n1C)CCCc1c-3[nH]c(=O)c(C(=O)O)c1O | 1.6 (≈ 3.89 µM) | 0.78 (≈ 1.9 µM) | 0.78 (≈ 1.9 µM) | 0.5 (≈ 1.22 µM) | 1 (≈ 2.43 µM) | 1.6 (≈ 3.89 µM) | 3.1
17 | CN(C)Cc1cc2cc(-c3cc(O)c(C(=O)O)c(=O)[nH]3)ccc2n1C |  | > 12.5 |  | > 12.5 |  |  | 
18 | CCNCc1cc2cc3c(cc2n1C)OCCc1c-3[nH]c(=O)c(C(=O)O)c1O | 12.5 (≈ 32.6 µM) | 0.78 (≈ 2.03 µM) | 0.78 (≈ 2.03 µM) | 0.78 (≈ 2.03 µM) | 12.5 (≈ 32.6 µM) | 12.5 (≈ 32.6 µM) | 1.6
19 | CCc1c(-c2ccc3c(c2)c(C)c(C)n3C)[nH]c(=O)c(C(=O)O)c1O |  | > 12.5 |  |  |  |  | 
20 | Cn1c(CN2CCCC2)cc2cc3c(cc21)COCc1c-3[nH]c(=O)c(C(=O)O)c1O | 12.5 (≈ 30.5 µM) | 3.1 (≈ 7.57 µM) | 3.1 (≈ 7.57 µM) | 0.39 (≈ 0.953 µM) | 12.5 (≈ 30.5 µM) |  | 
21 | CN(C)Cc1cc2cc3c(cc2n1C)COCc1c-3[nH]c(=O)c(C(=O)O)c1O | 25 (≈ 65.2 µM) | 6.3 (≈ 16.4 µM) | 3.1 (≈ 8.09 µM) | 0.78 (≈ 2.03 µM) | 25 (≈ 65.2 µM) |  | 
22 | CNCc1cc2cc3c(cc2n1C)OCCc1c-3[nH]c(=O)c(C(=O)O)c1O | 12.5 (≈ 33.8 µM) | 1.6 (≈ 4.33 µM) | 1.6 (≈ 4.33 µM) | 0.78 (≈ 2.11 µM) | > 12.5 | > 12.5 | 3.1
23 | Cc1c(-c2ccc3c(c2)cc(CN(C)C)n3C)[nH]c(=O)c(C(=O)O)c1O | 6.3 (≈ 17.7 µM) | 6.3 (≈ 17.7 µM) | 6.3 (≈ 17.7 µM) | 1.6 (≈ 4.5 µM) | 1.6 (≈ 4.5 µM) | 3.1 (≈ 8.72 µM) | 12.5
24 | CCc1c(-c2ccc3c(c2)cc(CNC(C)(C)C)n3C)[nH]c(=O)c(C(=O)O)c1O | 0.78 (≈ 1.96 µM) | 0.78 (≈ 1.96 µM) | 0.78 (≈ 1.96 µM) | 6.3 (≈ 15.9 µM) | 6.3 (≈ 15.9 µM) | 6.3 (≈ 15.9 µM) | 1.6
25 | CN(C)CCNCc1cc2cc3c(cc2n1C)OCCc1c-3[nH]c(=O)c(C(=O)O)c1O | > 62.5 | > 62.5 | 31.3 (≈ 73.4 µM) | 7.8 (≈ 18.3 µM) | > 62.5 |  | 62.5
26 | COC1CCN(Cc2cc3cc4c(cc3n2C)CCCc2c-4[nH]c(=O)c(C(=O)O)c2O)C1 (configuration not stated) | 3.1 (≈ 7.09 µM) | 1.6 (≈ 3.66 µM) | 3.1 (≈ 7.09 µM) | 2 (≈ 4.57 µM) | 3.1 (≈ 7.09 µM) |  | 3.1

Source: ChEMBL document CHEMBL4190388, “Discovery and Optimization of Indolyl-Containing 4-Hydroxy-2-Pyridone Type II DNA Topoisomerase Inhibitors Active against Multidrug Resistant Gram-negative Bacteria” (J Med Chem, 2018)
